This note sets out measurements from ChEMBL document CHEMBL1141274, “A Polysaccharide from tomato (Lycopersicon esculentum) peels affects NF-kappaB activation in LPS-stimulated J774 macrophages” (2007).

What all share (type): functional
Assay [1] has as its system J774. Put plainly: Inhibition of LPS induced iNOS mRNA level in mouse J774 cells at 10 uM by RT-PCR.
The test system of assay [2] is J774. In words: Inhibition of LPS induced ROS production in mouse J774 cells at 10 uM after 24 hrs relative to control. The conditions noted are these: J774, 24 h.
The test system of assay [3] is J774. Put plainly: Inhibition of iNOS protein expression in mouse J774 cells by Bio-Rad protein assay.
Assay [4] has as its system J774. In words: Inhibition of LPS induced nitrite production in mouse J774 cells at 10 uM after 24 hrs relative to control. To be noted: J774, 24 h.

In general, inhibition refers to the share of the control response that was lost under treatment. As a reminder, the Inhibition is the share of the control response that was lost under treatment. In the case of `S=C(S)N1CCCC1` [PYRROLIDINE DITHIOCARBAMATE], the inhibition at 10 µM in the assay on J774 [1] was 63.9%; with J774 [2], 42.2%; in the assay with J774 [4], 69.3%. Also, in the assay on J774 [3], the Inhibition worked out at 60%.
